From publication PMC7265429, “Characterization of a new small-molecule inhibitor of HDAC6 in glioblastoma” (Cell Death & Disease, 2020)

Tested on: acetyl-α-tubulin (HDAC6 main target) in U251-MG cells
Assay: Western blot of acetyl-α-tubulin and cleaved PARP in U251-MG
Assay type: cell-based, human
Conditions: 10 nM, 48 h
Procedure: Immunoblots were performed following standard procedures. […] Detection was performed by chemiluminiscence using NOVEX ECL Chemi Substrate (ThermoFisher).

## O=C(CCCCCCC(=O)Nc1ccccc1)NO [SAHA, Suberoylanilide hydroxamic acid]
  α-tubulin hyperacetylation: did not
